Measured values from patent publication US5658888A, “Erythromycin derivatives” (Chugai Seiyaku Kabushiki Kaisha, priority 1992, dated 1997).
Read-outs that look alike come from different tables or passages of the source.

Legend:
[1] = acid resistance / decomposition by acid; format: physicochemical; conditions: compared with EM-523 / publicly known erythromycin derivatives
Description: (§1) From a killed rabbit was removed the duodenum, of which the mucous membrane was detached from the tunica muscularis and then homogenized in a 50 mM Tris solution (pH 7.4) to prepare a protein solution. Twenty-five pM of ^125 I-labelled motilin (purchased from Ohtsuka Assay Laboratory) and the protein solution were incubated at 25° C. for 120 minutes, after which the radioactivity of the protein was measured with a γ-ray counter, the difference between the radioactivity observed in the case of non-addition of motilin and that observed in the case of addition of an excess (1×10^-7 m) of motilin being defined as the specific binding capacity. The efficacies of the samples were expressed as IC50 (M), the concentration of each of the test drugs which reduces the specific binding capacity to 50%. The test drug was dissolved in a DMSO solution and added to the protein solution (the final DMSO concentration:1%). In experiments on investigation of the acid resistance, the test drug was dissolved in a hydrochloric acid solution (pH 2.5) which was then allowed to stand at room temperature for 120 minutes prior to its addition to the protein solution for the experiments.

[2] = system: gastric antrum contractile motility; experiment: gastrointestinal motility of the conscious dog (force transducers, intragastric administration); format: in vivo, Beagle dog; conditions: for ED (MI=150): Canis lupus familiaris, po, conscious dog, interdigestive state, gastric antrum, read-out: MI150 (test drug dosage required to provide MI=150); for gastrointestinal contractile activity (in words): administered into the stomach
Description: The gastrointestinal motility of the conscious dog was measured according to the method described previously [Itoh, Zen, Journal of the Smooth Muscle Research, 13, 33 (1976)]. Beagle dogs weighing approximately 10 kg were anesthetized with an intravenously (i.v.) injection of pentobarbital sodium and the abdominal cavity was opened under aseptic conditions. Extraluminal force transducers were sutured onto the serosa of the gastric antrum (stomach), duodenum and jejunum in a manner to measure circular muscle contraction. In addition, a Silastic tube [French, size 6.5, Dow Corning, Midland, Mich., U.S.A.) was placed into the stomach for direct administration of test drugs into the stomach. The lead wires of these force transducers and a Silastic tube were led out of the abdominal cavity and through a skin incision made between the scapulae. After the operation, the dogs were housed in individual experimental cages and given commercial dog food once a day.
The gastrointestinal motor activity was recorded on a thermal pen-writing recorder (WR-3101, Graphtec, Tokyo, Japan) by connecting the lead wires of the transducers to the connecting cables from the amplifiers (UG-5, Nihon Kohden, Tokyo, Japan). About 2 weeks postoperatively, gastrointestinal contractile activity could be divided into two main patterns of activity, interdigestive and digestive state. In the interdigestive state, IMC (interdigestive migrating contractions) were seen to occur at regular intervals of 100-120 minutes in the gastric antrum and migrated through the duodenum and jejunum at a constant velocity. In all animals, feeding disrupted the regular IMC pattern. Experiments were carried out during interdigestive state. The test drug was directly injected into the stomach through a Silastic tube placed in the stomach in a volume of 3 ml, 15 min after the end of the IMC in the gastric antrum. Test drugs were dissolved in ethanol, and then diluted with 0.9% physiological saline.
To measure motility quantitatively, the signals from the gastric antrum were relayed to a personal computer (PC-9801, NEC, Tokyo, Japan) every 100 ms. The area surrounded by the contraction waves and the base line, i.e., the product of the amplitude (voltage) and the time in minutes during a certain fixed period, was calculated, expressed as percent of the area assuming that maximum contraction (amplitude) of the interdigestive migrating contraction lasted for 1 min, and used as the motor index (MI) [Inatomi et al., J. Pharmacol. Exp. Ther. 251, 707 (1989)]. The MI, which is calculated in this manner, of the naturally occurred in the gastric antrum is about 100-200. Therefore, the test drug dosage required to provide MI=150 was defined to be MI150 which was used as the index of the stimulating effects or the gastric motility of test drugs.

motilin receptor = target: T1, motilin receptor (Oryctolagus cuniculus, UniProt G1T803); experiment: motilin receptor binding test (displacement of 125I-labelled motilin); design: species or system rabbit; conditions: for activity in the hydrochloric acid solution compared with that in the DMSO solution: HCl pH 2.5, 120 min vs. DMSO
T1 construct: From a killed rabbit was removed the duodenum; from tissue; host or cells: rabbit duodenum homogenate (mucous membrane detached from the tunica muscularis, homogenized in 50 mM Tris pH 7.4)
T1 sequence (G1T803 1-400): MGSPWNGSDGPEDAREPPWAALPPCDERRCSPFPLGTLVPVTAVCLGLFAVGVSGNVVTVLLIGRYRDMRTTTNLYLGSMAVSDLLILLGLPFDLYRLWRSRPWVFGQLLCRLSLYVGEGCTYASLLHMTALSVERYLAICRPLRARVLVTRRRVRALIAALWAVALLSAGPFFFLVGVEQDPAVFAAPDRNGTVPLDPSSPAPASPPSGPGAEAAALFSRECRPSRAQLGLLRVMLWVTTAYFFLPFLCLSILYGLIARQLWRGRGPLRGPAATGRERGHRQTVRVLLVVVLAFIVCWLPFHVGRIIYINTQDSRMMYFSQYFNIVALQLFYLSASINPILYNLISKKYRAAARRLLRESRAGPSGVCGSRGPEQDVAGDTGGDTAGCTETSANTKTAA
Description: A motilin receptor binding test was conducted in the manner described hereunder [V. Bormans, et al., Regul. Peptides, 15, 143 (1986)].
as §1

[3] = background statement; cited from earlier work

level of activity in DMSO solution (comparison of Compound 6 and EM-523) (motilin receptor) | IC50 (motilin receptor; test drug in DMSO solution (final DMSO 1%), rabbit duodenum, 25 pM 125I-motilin, 25° C., 120 min, pH 7.4, read-out: IC50, Solution in DMSO) | IC50 (motilin receptor; test drug stood in hydrochloric acid solution (pH 2.5) at room temperature for 120 minutes before the assay, read-out: IC50, Solution in HCl) | Structure (SMILES) | decomposition by acid (in words) [1] | ED (MI=150) ([2]; intragastric) | gastrointestinal contractile activity (in words) [2] | contractile activity in the gastric antrum relative to EM-523 ([2]; intragastric, ratio of potency to EM-523) | activity in the hydrochloric acid solution compared with that in the DMSO solution (motilin receptor) | stability in the presence of an acid (in words) [3]
the same level of activity | 4.1 nM | 9.1 nM | CC[C@H]1OC(=O)[C@H](C)[C@@H](O[C@H]2C[C@@](C)(OC)[C@@H](O)[C@H](C)O2)[C@H](C)[C@@H](O[C@@H]2O[C@H](C)C[C@H](N(C)C(C)C)[C@H]2O)[C@@]2(C)CC(C)=C(O2)[C@H](C)C(=O)[C@]1(C)OC [Compound 6, isopropyl-nor-12-O-methyl-11-oxo-8,9-anhydroerythromycin A 6,9-hemiketal] | less decomposable with an acid than is EM-523 | 3.8 µg/kg | increased gastrointestinal contractile activity | about 4 times | differing little from the value in the DMSO solution | 
the same level of activity |  |  | CC[C@H]1OC(=O)[C@H](C)[C@@H](O[C@H]2C[C@@](C)(OC)[C@@H](O)[C@H](C)O2)[C@H](C)[C@@H](O[C@@H]2O[C@H](C)C[C@H](N(C)CC)[C@H]2O)[C@@]2(C)CC(C)=C(O2)[C@H](C)[C@@H](O)[C@]1(C)O [EM-523, reference compound] |  | 14.6 µg/kg | increased gastrointestinal contractile activity |  | a decrease in the activity to one-100th that in the DMSO solution | unstable in the presence of an acid
